Tests used:
Assay type in all cases: in vivo
[1] = tested on: ragweed (common ragweed, Ambrosia elatior); test: Test A postemergence, ragweed; details: 0 to 100 scale
Source text: (§1) Seeds of plant species selected from barnyardgrass (Echinochloa crus-galli), crabgrass (large crabgrass, Digitaria sanguinalis), kochia (Kochia scoparia), ragweed (common ragweed, Ambrosia elatior), morningglory (Ipomoea spp.), velvetleaf (Abutilon theophrasti), ryegrass, It. (Italian ryegrass, Lolium multiflorum), foxtail, giant (giant foxtail, Setaria faberii), wheat (Triticum aestivum), corn (Zea mays), and pigweed (Amaranthus retroflexus), were planted into a blend of loam soil and sand and treated preemergence with a directed soil spray using test chemicals formulated in a non-phytotoxic solvent mixture which included a surfactant. At the same time, plants selected from these crop and weed species and also blackgrass (Alopecurus myosuroides), and galium (catchweed bedstraw, Galium aparine), were planted in pots containing the same blend of loam soil and sand and treated with postemergence applications of test chemicals formulated in the same manner. Plants ranged in height from 2 to 10 cm and were in the one- to two-leaf stage for the postemergence treatment. Treated plants and untreated controls were maintained in a greenhouse for approximately 10 d, after which time all treated plants were compared to untreated controls and visually evaluated for injury. Plant response ratings, summarized in Table A, are based on a 0 to 100 scale where 0 is no effect and 100 is complete control. A dash (-) response means no test result.

[2] = tested on: ragweed (common ragweed, Ambrosia elatior); test: Test A preemergence, ragweed; details: 0 to 100 scale
Source text: as §1

kochia (Kochia scoparia) [3] = test: Test A postemergence, kochia; details: 0 to 100 scale
Source text: as §1

[4] = tested on: wheat (Triticum aestivum); test: Test A postemergence, wheat; details: 0 to 100 scale
Source text: as §1

kochia (Kochia scoparia) [5] = test: Test A preemergence, kochia; details: 0 to 100 scale
Source text: as §1

[6] = tested on: barnyardgrass (Echinochloa crus-galli); test: Test B flooded paddy test, barnyardgrass; details: Flood, scale of 0 to 100 where 0 is no effect and 100 is complete control, 13 to 15 d
Description: (§2) Plant species in the flooded paddy test selected from rice (Oryza sativa), sedge, umbrella (small-flower umbrella sedge, Cyperus difformis), ducksalad (Heteranthera limosa), and barnyardgrass (Echinochloa crus-galli) were grown to the 2-leaf stage for testing. At time of treatment, test pots were flooded to 3 cm above the soil surface, treated by application of test compounds directly to the paddy water, and then maintained at that water depth for the duration of the test. Treated plants and controls were maintained in a greenhouse for 13 to 15 d, after which time all species were compared to controls and visually evaluated. Plant response ratings, summarized in Table B, are based on a scale of 0 to 100 where 0 is no effect and 100 is complete control. A dash (-) response means no test result.

[7] = tested on: foxtail, giant (giant foxtail, Setaria faberii); test: Test A preemergence, foxtail, giant; details: 0 to 100 scale
Source text: as §1

[8] = tested on: pigweed (Amaranthus retroflexus); test: Test A preemergence, pigweed; details: 0 to 100 scale
Source text: as §1

[9] = tested on: ducksalad (Heteranthera limosa); test: Test B flooded paddy test, ducksalad; details: Flood, scale of 0 to 100 where 0 is no effect and 100 is complete control, 13 to 15 d
Description: as §2

[10] = tested on: pigweed (Amaranthus retroflexus); test: Test A postemergence, pigweed; details: 0 to 100 scale
Source text: as §1

corn (Zea mays) = test: Test A postemergence, corn; details: 0 to 100 scale
Source text: as §1

[11] = tested on: foxtail, giant (giant foxtail, Setaria faberii); test: Test A postemergence, foxtail, giant; details: 0 to 100 scale
Source text: as §1

[12] = tested on: blackgrass (Alopecurus myosuroides); test: Test A postemergence, blackgrass; details: 0 to 100 scale
Source text: as §1

[13] = tested on: barnyardgrass (Echinochloa crus-galli); test: Test A postemergence, barnyardgrass; details: 0 to 100 scale
Source text: as §1

[14] = tested on: barnyardgrass (Echinochloa crus-galli); test: Test A preemergence, barnyardgrass; details: 0 to 100 scale
Source text: as §1

[15] = tested on: ryegrass, It. (Italian ryegrass, Lolium multiflorum); test: Test A postemergence, ryegrass, It.; details: 0 to 100 scale
Source text: as §1

rice (Oryza sativa) = test: Test B flooded paddy test, rice; details: Flood, scale of 0 to 100 where 0 is no effect and 100 is complete control, 13 to 15 d
Description: as §2

[16] = tested on: sedge, umbrella (small-flower umbrella sedge, Cyperus difformis); test: Test B flooded paddy test, sedge, umbrella; details: Flood, scale of 0 to 100 where 0 is no effect and 100 is complete control, 13 to 15 d
Description: as §2

[17] = tested on: galium (catchweed bedstraw, Galium aparine); test: Test A postemergence, galium; details: 0 to 100 scale
Source text: as §1

[18] = tested on: ryegrass, It. (Italian ryegrass, Lolium multiflorum); test: Test A preemergence, ryegrass, It.; details: 0 to 100 scale
Source text: as §1

| Structure (SMILES) | Plant response rating, Ragweed ([1]; 125 g ai/ha) | Plant response rating, Ragweed ([1]; 500 g ai/ha) | Plant response rating, Ragweed ([2]; 125 g ai/ha) | Plant response rating, Kochia (kochia (Kochia scoparia) [3]; 125 g ai/ha) | Plant response rating, Kochia (kochia (Kochia scoparia) [3]; 500 g ai/ha) | Plant response rating, Wheat ([4]; 125 g ai/ha) | Plant response rating, Wheat ([4]; 500 g ai/ha) | Plant response rating, Kochia (kochia (Kochia scoparia) [5]; 125 g ai/ha) | Plant response rating, Kochia (kochia (Kochia scoparia) [5]; 500 g ai/ha) | Plant response rating, Foxtail, Giant ([7]; 125 g ai/ha) | Plant response rating, Foxtail, Giant ([7]; 500 g ai/ha) | Plant response rating, Pigweed ([8]; 125 g ai/ha) | Plant response rating, Pigweed ([8]; 500 g ai/ha) | Plant response rating, Pigweed ([10]; 125 g ai/ha) | Plant response rating, Pigweed ([10]; 500 g ai/ha) | Plant response rating, Corn (corn (Zea mays); 125 g ai/ha) | Plant response rating, Corn (corn (Zea mays); 500 g ai/ha) | Plant response rating, Foxtail, Giant ([11]; 125 g ai/ha) | Plant response rating, Foxtail, Giant ([11]; 500 g ai/ha) | Plant response rating, Blackgrass ([12]; 125 g ai/ha) | other results |
| --- | --- | --- | --- | --- | --- | --- | --- | --- | --- | --- | --- | --- | --- | --- | --- | --- | --- | --- | --- | --- | --- |
| O=C1NCC(Cc2cccc(C(F)(F)F)c2)C1C(=O)Nc1cccc(F)c1F (centres unmarked) [Compound 11] | 0 | 0 | 0 | 0 | 0 | 0 | 0 | 0 | 0 | 0 | 0 | 0 | 0 | 0 | 0 | 0 | 0 | 0 | 0 | 0 | Plant response rating, Ragweed ([2]; 500 g ai/ha): 0; Plant response rating, Barnyardgrass ([6]; 500 g ai/ha): 0; Plant response rating, Ducksalad ([9]; 500 g ai/ha): 0; Plant response rating, Blackgrass ([12]; 500 g ai/ha): 0; Plant response rating, Barnyardgrass ([13]; 125 g ai/ha): 0; Plant response rating, Barnyardgrass ([13]; 500 g ai/ha): 0; Plant response rating, Barnyardgrass ([14]; 125 g ai/ha): 0; Plant response rating, Barnyardgrass ([14]; 500 g ai/ha): 0; Plant response rating, Ryegrass, It. ([15]; 125 g ai/ha): 0; Plant response rating, Ryegrass, It. ([15]; 500 g ai/ha): 0; Plant response rating, Rice (rice (Oryza sativa); 500 g ai/ha): 0; Plant response rating, Sedge, Umbrella ([16]; 500 g ai/ha): 0; Plant response rating, Galium ([17]; 125 g ai/ha): 0; Plant response rating, Galium ([17]; 500 g ai/ha): 0; Plant response rating, Ryegrass, It. ([18]; 125 g ai/ha): 0; Plant response rating, Ryegrass, It. ([18]; 500 g ai/ha): 0 |
| O=C1NCC(Cc2ccc(C(F)(F)F)cc2)C1C(=O)Nc1ccccc1C(F)(F)F (centres unmarked) [Compound 6] | 0 | 0 | 0 | 0 | 0 | 0 | 0 | 0 | 0 | 0 | 0 | 0 | 0 | 0 | 0 | 0 | 0 | 0 | 0 | 0 | Plant response rating, Ragweed ([2]; 500 g ai/ha): 0; Plant response rating, Barnyardgrass ([6]; 500 g ai/ha): 0; Plant response rating, Ducksalad ([9]; 500 g ai/ha): 0; Plant response rating, Blackgrass ([12]; 500 g ai/ha): 0; Plant response rating, Barnyardgrass ([13]; 125 g ai/ha): 0; Plant response rating, Barnyardgrass ([13]; 500 g ai/ha): 0; Plant response rating, Barnyardgrass ([14]; 125 g ai/ha): 0; Plant response rating, Barnyardgrass ([14]; 500 g ai/ha): 0; Plant response rating, Ryegrass, It. ([15]; 125 g ai/ha): 0; Plant response rating, Ryegrass, It. ([15]; 500 g ai/ha): 0; Plant response rating, Rice (rice (Oryza sativa); 500 g ai/ha): 0; Plant response rating, Sedge, Umbrella ([16]; 500 g ai/ha): 0; Plant response rating, Galium ([17]; 125 g ai/ha): 0; Plant response rating, Galium ([17]; 500 g ai/ha): 0; Plant response rating, Ryegrass, It. ([18]; 125 g ai/ha): 0; Plant response rating, Ryegrass, It. ([18]; 500 g ai/ha): 0 |
| Cc1cccc(C#CC2CNC(=O)C2C(=O)Nc2ccc(F)c(F)c2F)c1 (centres unmarked) [Compound 23] | 0 | 0 | 0 | 0 | 20 | 0 | 0 | 0 | 0 | 40 | 80 | 0 | 0 | 0 | 0 | 0 | 0 | 20 | 50 | 0 | Plant response rating, Ragweed ([2]; 500 g ai/ha): 0; Plant response rating, Barnyardgrass ([6]; 250 g ai/ha): 0; Plant response rating, Ducksalad ([9]; 250 g ai/ha): 0; Plant response rating, Blackgrass ([12]; 500 g ai/ha): 0; Plant response rating, Barnyardgrass ([13]; 125 g ai/ha): 20; Plant response rating, Barnyardgrass ([13]; 500 g ai/ha): 50; Plant response rating, Barnyardgrass ([14]; 125 g ai/ha): 60; Plant response rating, Barnyardgrass ([14]; 500 g ai/ha): 80; Plant response rating, Ryegrass, It. ([15]; 125 g ai/ha): 0; Plant response rating, Ryegrass, It. ([15]; 500 g ai/ha): 0; Plant response rating, Rice (rice (Oryza sativa); 250 g ai/ha): 0; Plant response rating, Sedge, Umbrella ([16]; 250 g ai/ha): 0; Plant response rating, Galium ([17]; 125 g ai/ha): 0; Plant response rating, Galium ([17]; 500 g ai/ha): 20; Plant response rating, Ryegrass, It. ([18]; 125 g ai/ha): 0; Plant response rating, Ryegrass, It. ([18]; 500 g ai/ha): 0 |
| O=C(Nc1cccc(C(F)(F)F)c1)C1CNC(=O)C1C(=O)Nc1cccc(F)c1F (centres unmarked) [Compound 18] | 0 | 0 | 0 | 0 | 0 | 0 | 0 | 0 | 0 | 50 | 60 | 0 | 0 | 0 | 30 | 0 | 0 | 20 | 50 | 20 | Plant response rating, Barnyardgrass ([6]; 250 g ai/ha): 30; Plant response rating, Ducksalad ([9]; 250 g ai/ha): 40; Plant response rating, Blackgrass ([12]; 500 g ai/ha): 30; Plant response rating, Barnyardgrass ([13]; 125 g ai/ha): 20; Plant response rating, Barnyardgrass ([13]; 500 g ai/ha): 30; Plant response rating, Barnyardgrass ([14]; 125 g ai/ha): 20; Plant response rating, Barnyardgrass ([14]; 500 g ai/ha): 30; Plant response rating, Ryegrass, It. ([15]; 125 g ai/ha): 0; Plant response rating, Ryegrass, It. ([15]; 500 g ai/ha): 0; Plant response rating, Rice (rice (Oryza sativa); 250 g ai/ha): 15; Plant response rating, Sedge, Umbrella ([16]; 250 g ai/ha): 0; Plant response rating, Galium ([17]; 125 g ai/ha): 0; Plant response rating, Galium ([17]; 500 g ai/ha): 50; Plant response rating, Ryegrass, It. ([18]; 125 g ai/ha): 0; Plant response rating, Ryegrass, It. ([18]; 500 g ai/ha): 20 |
| O=C1NCC(/C=C/c2ccc(F)cc2)C1C(=O)Nc1cccc(F)c1F (centres unmarked) [Compound 31] | 0 | 20 | 0 | 0 | 30 | 0 | 0 | 0 | 20 | 20 | 70 | 0 | 0 | 0 | 0 | 0 | 20 | 30 | 60 | 0 | Plant response rating, Ragweed ([2]; 500 g ai/ha): 0; Plant response rating, Barnyardgrass ([6]; 250 g ai/ha): 40; Plant response rating, Ducksalad ([9]; 250 g ai/ha): 80; Plant response rating, Blackgrass ([12]; 500 g ai/ha): 0; Plant response rating, Barnyardgrass ([13]; 125 g ai/ha): 30; Plant response rating, Barnyardgrass ([13]; 500 g ai/ha): 70; Plant response rating, Barnyardgrass ([14]; 125 g ai/ha): 0; Plant response rating, Barnyardgrass ([14]; 500 g ai/ha): 70; Plant response rating, Ryegrass, It. ([15]; 125 g ai/ha): 0; Plant response rating, Ryegrass, It. ([15]; 500 g ai/ha): 20; Plant response rating, Rice (rice (Oryza sativa); 250 g ai/ha): 15; Plant response rating, Sedge, Umbrella ([16]; 250 g ai/ha): 50; Plant response rating, Galium ([17]; 125 g ai/ha): 0; Plant response rating, Galium ([17]; 500 g ai/ha): 30; Plant response rating, Ryegrass, It. ([18]; 125 g ai/ha): 0; Plant response rating, Ryegrass, It. ([18]; 500 g ai/ha): 0 |
